Values after ≈ are worked out from the molar mass of the structure shown. Active and inactive are the calls of the source. The calls are words filed in the database; no cut-off is given here.
Legend:
Type in all cases: functional
[1] = system: Staphylococcus aureus; assay: Antibacterial activity against Staphylococcus aureus ATCC 25923 assessed as bacterial growth inhibition incubated for 18 to 24 hrs by microtiter dilution method; conditions: time 18-24 hrs
[2] = system: Staphylococcus aureus; assay: Antibacterial activity against methicillin-resistant Staphylococcus aureus BNCC 337371 assessed as bacterial growth inhibition incubated for 18 to 24 hrs by microtiter dilution method; conditions: time 18-24 hrs
[3] = system: Enterococcus faecalis; assay: Antibacterial activity against Enterococcus faecalis assessed as bacterial growth inhibition incubated for 18 to 24 hrs by microtiter dilution method; conditions: time 18-24 hrs
[4] = system: Bacillus subtilis; assay: Antibacterial activity against Bacillus subtilis assessed as bacterial growth inhibition incubated for 18 to 24 hrs by microtiter dilution method; conditions: time 18-24 hrs
[5] = system: Escherichia coli; assay: Antibacterial activity against Escherichia coli CICC 10389 assessed as bacterial growth inhibition incubated for 18 to 24 hrs by microtiter dilution method; conditions: time 18-24 hrs
[6] = system: Staphylococcus epidermidis; assay: Antibacterial activity against methicillin-resistant Staphylococcus epidermidis ATCC 51625 assessed as bacterial growth inhibition incubated for 18 to 24 hrs by microtiter dilution method; conditions: time 18-24 hrs
[7] = system: Staphylococcus aureus; assay: Antibacterial activity against methicillin-resistant Staphylococcus aureus BNCC 337371 assessed as reduction on bacterial count at 6X MIC incubated for 24 hrs by time killing assay
[8] = system: Staphylococcus aureus; assay: Antibacterial activity against Staphylococcus aureus ATCC 25923 assessed as reduction on bacterial count at 6X MIC incubated for 24 hrs by time killing assay

Row | SMILES | MIC [1] | MIC [2] | MIC [3] | MIC [4] | MIC [5] | MIC [6] | Activity [7] | Activity [8]
1 | C=C[C@]1(C)C[C@@H](OC(=O)CSc2nc(C)c(C(=O)OC(C)CC)c(C)n2)[C@]2(C)[C@H](C)CC[C@]3(CCC(=O)[C@H]32)[C@@H](C)[C@@H]1O (stereo partly drawn) | 0.5 mg/L (≈ 0.832 µM) | 0.5 mg/L (≈ 0.832 µM) | > 16 mg/L | > 16 mg/L | > 16 mg/L | 0.5 mg/L (≈ 0.832 µM) | – | –
2 | C=C[C@]1(C)C[C@@H](OC(=O)CSc2nc(C)c(C(=O)OC)c(CC)n2)[C@]2(C)[C@H](C)CC[C@]3(CCC(=O)[C@H]32)[C@@H](C)[C@@H]1O | 0.0313 mg/L (≈ 0.0546 µM) | 0.0625 mg/L (≈ 0.109 µM) | > 16 mg/L | 4 mg/L (≈ 6.98 µM) | > 16 mg/L | 0.0625 mg/L (≈ 0.109 µM) | – | –
3 | C=C[C@]1(C)C[C@@H](OC(=O)CSC2=NC(CC(C)C)=C(C(=O)OC)C(C)N2)[C@]2(C)[C@H](C)CC[C@]3(CCC(=O)[C@H]32)[C@@H](C)[C@@H]1O (stereo partly drawn) | 1 mg/L (≈ 1.66 µM) | 0.5 mg/L (≈ 0.829 µM) | > 16 mg/L | > 16 mg/L | > 16 mg/L | 0.5 mg/L (≈ 0.829 µM) | – | –
4 | C=C[C@]1(C)C[C@@H](OC(=O)CSc2nc(C)c(C(=O)OC)c(C(CC)CC)n2)[C@]2(C)[C@H](C)CC[C@]3(CCC(=O)[C@H]32)[C@@H](C)[C@@H]1O | 0.25 mg/L (≈ 0.407 µM) | 0.25 mg/L (≈ 0.407 µM) | > 16 mg/L | > 16 mg/L | > 16 mg/L | 0.5 mg/L (≈ 0.813 µM) | – | –
5 | C=C[C@]1(C)C[C@@H](OC(=O)CSc2nc(C)c(C(=O)OC)c(CC(C)C)n2)[C@]2(C)[C@H](C)CC[C@]3(CCC(=O)[C@H]32)[C@@H](C)[C@@H]1O | 0.25 mg/L (≈ 0.416 µM) | 0.25 mg/L (≈ 0.416 µM) | > 16 mg/L | > 16 mg/L | > 16 mg/L | 0.5 mg/L (≈ 0.832 µM) | – | –
6 | C=C[C@]1(C)C[C@@H](OC(=O)CSc2nc(C)c(C(C)=O)c(C)n2)[C@]2(C)[C@H](C)CC[C@]3(CCC(=O)[C@H]32)[C@@H](C)[C@@H]1O | ≤ 0.0156 mg/L | ≤ 0.0156 mg/L | > 16 mg/L | 1 mg/L (≈ 1.84 µM) | > 16 mg/L | 0.0313 mg/L (≈ 0.0577 µM) | Active | Active
7 | C=C[C@]1(C)C[C@@H](OC(=O)CSC2=NC(CC)=C(C(=O)OC)C(C)N2)[C@]2(C)[C@H](C)CC[C@]3(CCC(=O)[C@H]32)[C@@H](C)[C@@H]1O (stereo partly drawn) | 0.5 mg/L (≈ 0.87 µM) | 0.25 mg/L (≈ 0.435 µM) | > 16 mg/L | 8 mg/L (≈ 13.9 µM) | > 16 mg/L | 0.125 mg/L (≈ 0.217 µM) | – | –
8 | C=C[C@]1(C)C[C@@H](OC(=O)CSc2nc(C)c(C(=O)OCCC)c(C)n2)[C@]2(C)[C@H](C)CC[C@]3(CCC(=O)[C@H]32)[C@@H](C)[C@@H]1O | 0.25 mg/L (≈ 0.426 µM) | 0.125 mg/L (≈ 0.213 µM) | > 16 mg/L | 4 mg/L (≈ 6.82 µM) | > 16 mg/L | 0.125 mg/L (≈ 0.213 µM) | – | –
9 | C=C[C@]1(C)C[C@@H](OC(=O)CSC2=NC(C)=C(C(=O)OC(C)CC)C(C)N2)[C@]2(C)[C@H](C)CC[C@]3(CCC(=O)[C@H]32)[C@@H](C)[C@@H]1O (stereo partly drawn) | 0.5 mg/L (≈ 0.829 µM) | 0.5 mg/L (≈ 0.829 µM) | > 16 mg/L | > 16 mg/L | > 16 mg/L | 1 mg/L (≈ 1.66 µM) | – | –
10 | C=CCOC(=O)C1=C(C)N=C(SCC(=O)O[C@@H]2C[C@@](C)(C=C)[C@@H](O)[C@H](C)[C@]34CCC(=O)[C@H]3[C@@]2(C)[C@H](C)CC4)NC1C (stereo partly drawn) | 0.25 mg/L (≈ 0.426 µM) | 0.25 mg/L (≈ 0.426 µM) | > 16 mg/L | > 16 mg/L | > 16 mg/L | 0.5 mg/L (≈ 0.852 µM) | – | –
11 | C=C[C@]1(C)C[C@@H](OC(=O)CSC2=NC(C)=C(C(C)=O)C(C)N2)[C@]2(C)[C@H](C)CC[C@]3(CCC(=O)[C@H]32)[C@@H](C)[C@@H]1O (stereo partly drawn) | 0.125 mg/L (≈ 0.229 µM) | 0.25 mg/L (≈ 0.459 µM) | > 16 mg/L | > 16 mg/L | > 16 mg/L | 0.25 mg/L (≈ 0.459 µM) | – | –
